# Laboratory results reported in US8410177B2, “Curcumin derivatives” (Indian Institute of Technology Bombay, priority 2009, dated 2013).
row,Structure (SMILES),melting point [°C]
1,"COc1ccc([C@H]2C(C(=O)/C=C/c3ccc(OCc4ccccc4)c(OC)c3)C(=O)C[C@H](c3ccc(OCc4ccccc4)cc3)[C@@H]2[N+](=O)[O-])cc1 (some centres unmarked) [IX-16, 2-((E)-3-(4-(benzyloxy)-3-methoxyphenyl)acryloyl)-5-(4-(benzyloxy)phenyl)-3-(4-methoxyphenyl)-4-nitrocyclohexanone]",76 to 78
2,"COc1ccc(/C=C/C(=O)C2C(=O)C[C@H](c3ccc(OC)cc3)[C@H]([N+](=O)[O-])[C@H]2C2CCCCC2)cc1 (some centres unmarked) [IX-14, 3-cyclohexyl-5-(4-methoxyphenyl)-2-((E)-3-(4-methoxyphenyl)acryloyl)-4-nitrocyclohexanone]",203 to 205
3,"COc1ccc([C@H]2C(C(=O)/C=C/c3ccc(O)c(OC)c3)C(=O)C[C@H](c3ccc(O)c(OC)c3)[C@@H]2[N+](=O)[O-])cc1 (some centres unmarked) [IX-11, 5-(4-hydroxy-3-methoxyphenyl)-2-((E)-3-(4-hydroxy-3-methoxyphenyl)acryloyl)-3-(4-methoxyphenyl)-4-nitrocyclohexanone]",83 to 85
4,"COc1ccc([C@H]2C(C(=O)/C=C/c3ccccc3)C(=O)C[C@H](c3ccccc3)[C@@H]2[N+](=O)[O-])cc1 (some centres unmarked) [IX-12, 3-(4-methoxyphenyl)-4-nitro-5-phenyl-2-((E)-3-phenylacryloyl)cyclohexanone]",108 to 110
5,"CCCC[C@H]1C(C(=O)/C=C/c2ccc(OC)cc2)C(=O)C[C@H](c2ccc(OC)cc2)[C@@H]1[N+](=O)[O-] (some centres unmarked) [IX-15, 3-butyl-5-(4-methoxyphenyl)-2-((E)-3-(4-methoxyphenyl)acryloyl)-4-nitrocyclohexanone]",127 to 129
6,"COc1ccc(/C=C/C(=O)C2C(=O)CC(c3ccc(OC)cc3)[C@H]([N+](=O)[O-])C2c2ccc(OC)cc2)cc1 (some centres unmarked) [IX-1, 3,5-Bis(4-Methoxyphenyl)-2-((E)-3-(4-Methoxyphenyl)acryloyl)-4-Nitrocyclohexanone]",200 to 202
7,"COc1ccc(/C=C/C(=O)C2C(=O)C[C@H](c3ccc(OC)cc3)[C@H]([N+](=O)[O-])[C@H]2c2ccc3c(c2)OCO3)cc1 (some centres unmarked) [IX-6, 3-(Benzo[a][1,3]dioxol-5-yl)-5-(4-Methoxyphenyl)-2-((E)-3-(4-Methoxyphenyl)acryloyl)-4-Nitrocyclohexanone]",154 to 156
8,"COc1ccc(/C=C/C(=O)C2C(=O)C[C@H](c3ccc(OC)cc3)[C@H]([N+](=O)[O-])[C@H]2c2ccc(OC)c(OC)c2)cc1 (some centres unmarked) [IX-2, 3-(3,4-Dimethoxyphenyl)-5-(4-Methoxyphenyl)-2-((E)-3-(4-Methoxyphenyl)acryloyl)-4-Nitrocyclohexanone]",126 to 128
9,"COc1ccc(C2C(C(=O)/C=C/c3ccc(OC)c(OC)c3)C(=O)C[C@H](c3ccc(OC)c(OC)c3)[C@@H]2[N+](=O)[O-])cc1 (some centres unmarked) [IX-10, 5-(3,4-dimethoxyphenyl)-3-(4-methoxyphenyl)-2-((E)-3-(3,4-dimethoxyphenyl)acryloyl)-4-Nitrocyclohexanone]",158 to 160

# Now from value to compound:
row,melting point [°C],Structure (SMILES)
1,88 to 90,"COc1ccc(/C=C/C(=O)C2C(=O)C[C@H](c3ccc(OC)cc3)[C@H]([N+](=O)[O-])[C@H]2/C=C/c2ccccc2)cc1 (some centres unmarked) [IX-9, 5-(4-Methoxyphenyl)-2-((E)-3-(4-Methoxyphenyl)acryloyl)-4-nitro-3-styrylcyclohexanone]"
2,156 to 158,"COc1ccc(/C=C/C(=O)C2C(=O)C[C@H](c3ccc(OC)cc3)[C@H]([N+](=O)[O-])C2c2ccc(Cl)cc2)cc1 (some centres unmarked) [IX-4, 3-(4-Chlorophenyl)-5-(4-Methoxyphenyl)-2-((E)-3-(4-Methoxyphenyl)acryloyl)-4-Nitrocyclohexanone]"
3,160 to 162,"COc1ccc(/C=C/C(=O)C2C(=O)C[C@H](c3ccc(OC)cc3)[C@H]([N+](=O)[O-])[C@H]2c2cccs2)cc1 (some centres unmarked) [IX-5, 5-(4-Methoxyphenyl)-2-((E)-3-(4-Methoxyphenyl)acryloyl)-4-Nitro-3-(Thiophen-2-yl)cyclohexanone]"
4,164 to 165,"COc1ccc(/C=C/C(=O)C2C(=O)C[C@H](c3ccc(OC)cc3)[C@H]([N+](=O)[O-])[C@H]2c2ccccc2)cc1 (some centres unmarked) [IX-3, 5-(4-Methoxyphenyl)-2-((E)-3-(4-Methoxyphenyl)acryloyl)-4-Nitro-3-Phenylcyclohexanone]"
5,192,"COc1ccc(/C=C/C(=O)C2C(=O)C[C@H](c3ccc(OC)cc3)[C@H]([N+](=O)[O-])[C@H]2c2ccco2)cc1 (some centres unmarked) [IX-7, 3-(Furan-2-yl)-5-(4-Methoxyphenyl)-2-((E)-3-(4-Methoxyphenyl)acryloyl)-4-Nitrocyclohexanone]"
